The supplement of paper PMC10307832

Key:
Assay in all cases: relative viability (nuclei count vs DMSO), 5 days (fraction); higher = more cells survive
[1] = compound: CC1CC(=O)N(C2=CN=C(N=C2N1C3CCCC3)NC4=C(C=C(C=C4)C(=O)NC5CCN(CC5)C)OC)C [NPK76-II-72-1] + Nc1ncn([C@H]2C[C@H](O)[C@@H](CO)O2)c(=O)n1 [Decitabine] (partner 2 µM)
Outline: (§1)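 Lung cancer cell lines in 1536-well plates got either a single drug or a fixed anchor-drug dose together with five library-drug doses (not always all listed) in √10 steps, by pin tool, on the day after seeding. Nuclei were counted after 5 days, and relative viability is the treated-to-vehicle ratio of nuclei counts. Values are medians of duplicate plates.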

[2] = compound: CC1CC(=O)N(C2=CN=C(N=C2N1C3CCCC3)NC4=C(C=C(C=C4)C(=O)NC5CCN(CC5)C)OC)C [NPK76-II-72-1] + N=C(N)NC(=N)NCCc1ccccc1 [Phenformin] (partner 250 µM)
Outline: as §1

BI-2536 + Navitoclax = compound: CC[C@@H]1C(=O)N(C)c2cnc(Nc3ccc(C(=O)NC4CCN(C)CC4)cc3OC)nc2N1C1CCCC1 [BI-2536] + CC1(C)CCC(c2ccc(Cl)cc2)=C(CN2CCN(c3ccc(C(=O)NS(=O)(=O)c4ccc(N[C@H](CCN5CCOCC5)CSc5ccccc5)c(S(=O)(=O)C(F)(F)F)c4)cc3)CC2)C1 [Navitoclax] (partner 0.5 µM)
Outline: as §1

[3] = compound: CC1CC(=O)N(C2=CN=C(N=C2N1C3CCCC3)NC4=C(C=C(C=C4)C(=O)NC5CCN(CC5)C)OC)C [NPK76-II-72-1] + CC(=O)Nc1cccc(-n2c(=O)n(C3CC3)c(=O)c3c(Nc4ccc(I)cc4F)n(C)c(=O)c(C)c32)c1 [Trametinib] (partner 0.02 µM)
Outline: as §1

For ABC-1, the relative viability ([1]; first compound 0.01 µM) was 0.94, the relative viability ([1]; first compound 0.03162 µM) was 1 and the relative viability ([1]; first compound 0.1 µM) was 0.859. The relative viability ([1]; first compound 0.3162 µM) was 1.13, the relative viability ([1]; first compound 1 µM) was 0.887 and the relative viability ([2]; first compound 0.01 µM) was 0.264. The relative viability ([2]; first compound 0.03162 µM) was 0.223, the relative viability ([2]; first compound 0.1 µM) was 0.202 and the relative viability ([2]; first compound 0.3162 µM) was 0.258. For the same cell line, the relative viability ([2]; first compound 1 µM) was 0.28.
Cell Line NCI-H1299 has a relative viability (BI-2536 + Navitoclax; first compound 0.01 µM) of 1.08, a relative viability (BI-2536 + Navitoclax; first compound 0.03162 µM) of 1.1 and a relative viability (BI-2536 + Navitoclax; first compound 0.1 µM) of 1.05. For the same cell line, the relative viability (BI-2536 + Navitoclax; first compound 0.3162 µM) was 0.315 and the relative viability (BI-2536 + Navitoclax; first compound 1 µM) was 0.254.
EBC-1 showed a relative viability (BI-2536 + Navitoclax; first compound 0.01 µM) of 0.327, a relative viability (BI-2536 + Navitoclax; first compound 0.03162 µM) of 0.28 and a relative viability (BI-2536 + Navitoclax; first compound 0.1 µM) of 0.171. It also gave a relative viability (BI-2536 + Navitoclax; first compound 0.3162 µM) of 0.173 and a relative viability (BI-2536 + Navitoclax; first compound 1 µM) of 0.159.
Work on NCI-H2342 yielded a relative viability ([1]; first compound 0.01 µM) of 0.686, a relative viability ([1]; first compound 0.03162 µM) of 0.694 and a relative viability ([1]; first compound 0.1 µM) of 0.759. The relative viability ([1]; first compound 0.3162 µM) was 0.668, the relative viability ([1]; first compound 1 µM) was 0.78 and the relative viability ([2]; first compound 0.01 µM) was 0.606. The relative viability ([2]; first compound 0.03162 µM) was 0.472, the relative viability ([2]; first compound 0.1 µM) was 0.675 and the relative viability ([2]; first compound 0.3162 µM) was 0.394. For the same cell line, the relative viability ([2]; first compound 1 µM) was 0.623, the relative viability ([3]; first compound 0.01 µM) was 0.871 and the relative viability ([3]; first compound 0.03162 µM) was 0.655. For the same cell line, the relative viability ([3]; first compound 0.1 µM) was 0.909, the relative viability ([3]; first compound 0.3162 µM) was 0.809 and the relative viability ([3]; first compound 1 µM) was 0.461.
NCI-H650 was tested, and the relative viability ([1]; first compound 0.01 µM) was 0.316, the relative viability ([1]; first compound 0.03162 µM) was 0.33 and the relative viability ([1]; first compound 0.1 µM) was 0.358. For the same cell line, the relative viability ([1]; first compound 0.3162 µM) was 0.311, the relative viability ([1]; first compound 1 µM) was 0.299 and the relative viability ([2]; first compound 0.01 µM) was 0.441. The relative viability ([2]; first compound 0.03162 µM) was 0.457, the relative viability ([2]; first compound 0.1 µM) was 0.454 and the relative viability ([2]; first compound 0.3162 µM) was 0.381. The relative viability ([2]; first compound 1 µM) was 0.486, the relative viability ([3]; first compound 0.01 µM) was 1.14 and the relative viability ([3]; first compound 0.03162 µM) was 0.996. For the same cell line, the relative viability ([3]; first compound 0.1 µM) was 0.957, the relative viability ([3]; first compound 0.3162 µM) was 0.997 and the relative viability ([3]; first compound 1 µM) was 1.01.
A549 was tested, and the relative viability ([1]; first compound 0.01 µM) was 0.429, the relative viability ([1]; first compound 0.03162 µM) was 0.332 and the relative viability ([1]; first compound 0.1 µM) was 0.327. For the same cell line, the relative viability ([1]; first compound 0.3162 µM) was 0.233, the relative viability ([1]; first compound 1 µM) was 0.312 and the relative viability ([2]; first compound 0.03162 µM) was 0.136. For the same cell line, the relative viability ([2]; first compound 0.1 µM) was 0.222, the relative viability ([2]; first compound 0.3162 µM) was 0.155 and the relative viability ([2]; first compound 1 µM) was 0.192. For the same cell line, the relative viability (BI-2536 + Navitoclax; first compound 0.01 µM) was 1.38, the relative viability (BI-2536 + Navitoclax; first compound 0.03162 µM) was 1.07 and the relative viability (BI-2536 + Navitoclax; first compound 0.1 µM) was 0.0366. The relative viability (BI-2536 + Navitoclax; first compound 0.3162 µM) was 0.0423 and the relative viability (BI-2536 + Navitoclax; first compound 1 µM) was 0.0248.
In the case of NCI-H358, the relative viability ([1]; first compound 0.01 µM) is reported as 0.193, the relative viability ([1]; first compound 0.03162 µM) is reported as 0.215 and the relative viability ([1]; first compound 0.1 µM) is reported as 0.222. The relative viability ([1]; first compound 1 µM) was 0.214, the relative viability ([2]; first compound 0.01 µM) was 0.324 and the relative viability ([2]; first compound 0.03162 µM) was 0.382. It also gave a relative viability ([2]; first compound 0.1 µM) of 0.32, a relative viability ([2]; first compound 1 µM) of 0.372 and a relative viability ([3]; first compound 0.01 µM) of 0.14. The relative viability ([3]; first compound 0.03162 µM) was 0.145, the relative viability ([3]; first compound 0.1 µM) was 0.204 and the relative viability ([3]; first compound 1 µM) was 0.151.
With NCI-H1563 the relative viability ([2]; first compound 0.01 µM) was 0.686, the relative viability ([2]; first compound 0.03162 µM) was 0.606 and the relative viability ([2]; first compound 0.1 µM) was 0.637. The relative viability ([2]; first compound 0.3162 µM) was 0.656 and the relative viability ([2]; first compound 1 µM) was 0.697.
In the case of SW 900, the relative viability ([1]; first compound 0.01 µM) is reported as 0.425, the relative viability ([1]; first compound 0.03162 µM) is reported as 0.407 and the relative viability ([1]; first compound 0.1 µM) is reported as 0.429. The relative viability ([1]; first compound 0.3162 µM) was 0.504, the relative viability ([1]; first compound 1 µM) was 0.467 and the relative viability ([2]; first compound 0.01 µM) was 0.559. It also gave a relative viability ([2]; first compound 0.03162 µM) of 0.73, a relative viability ([2]; first compound 0.1 µM) of 0.657 and a relative viability ([2]; first compound 0.3162 µM) of 0.664. The relative viability ([2]; first compound 1 µM) was 0.699, the relative viability ([3]; first compound 0.01 µM) was 0.871 and the relative viability ([3]; first compound 0.03162 µM) was 1.07. For the same cell line, the relative viability ([3]; first compound 0.1 µM) was 0.66, the relative viability ([3]; first compound 0.3162 µM) was 0.587 and the relative viability ([3]; first compound 1 µM) was 1.11.
In the case of IA-LM, the relative viability (BI-2536 + Navitoclax; first compound 0.01 µM) is reported as 0.753, the relative viability (BI-2536 + Navitoclax; first compound 0.03162 µM) is reported as 0.559 and the relative viability (BI-2536 + Navitoclax; first compound 0.1 µM) is reported as 0.0092. The relative viability (BI-2536 + Navitoclax; first compound 0.3162 µM) was 0.0147 and the relative viability (BI-2536 + Navitoclax; first compound 1 µM) was 0.0245.
NCI-H1703 was tested, and the relative viability (BI-2536 + Navitoclax; first compound 0.01 µM) was 1.13, the relative viability (BI-2536 + Navitoclax; first compound 0.03162 µM) was 0.349 and the relative viability (BI-2536 + Navitoclax; first compound 0.1 µM) was 0.136. The relative viability (BI-2536 + Navitoclax; first compound 0.3162 µM) was 0.142 and the relative viability (BI-2536 + Navitoclax; first compound 1 µM) was 0.104.
With LCLC-103H the relative viability ([1]; first compound 0.03162 µM) was 0.786, the relative viability ([1]; first compound 0.1 µM) was 0.694 and the relative viability ([1]; first compound 0.3162 µM) was 0.761. For the same cell line, the relative viability ([1]; first compound 1 µM) was 0.716, the relative viability ([2]; first compound 0.01 µM) was 0.273 and the relative viability ([2]; first compound 0.03162 µM) was 0.363. The relative viability ([2]; first compound 0.1 µM) was 0.342, the relative viability ([2]; first compound 0.3162 µM) was 0.329 and the relative viability ([2]; first compound 1 µM) was 0.342. The relative viability ([3]; first compound 0.03162 µM) was 0.673, the relative viability ([3]; first compound 0.1 µM) was 0.556 and the relative viability ([3]; first compound 0.3162 µM) was 0.709. It also gave a relative viability ([3]; first compound 1 µM) of 0.693.
Cell Line NCI-H1648 has a relative viability ([1]; first compound 0.01 µM) of 0.53, a relative viability ([1]; first compound 0.03162 µM) of 0.551 and a relative viability ([1]; first compound 0.1 µM) of 0.548. The relative viability ([1]; first compound 0.3162 µM) was 0.476, the relative viability ([1]; first compound 1 µM) was 0.519 and the relative viability ([3]; first compound 0.01 µM) was 0.503. The relative viability ([3]; first compound 0.03162 µM) was 0.504, the relative viability ([3]; first compound 0.1 µM) was 0.369 and the relative viability ([3]; first compound 0.3162 µM) was 0.384. It also gave a relative viability ([3]; first compound 1 µM) of 0.494.
